Test systems include SK-MEL-2 melanoma; EKVX NSCLC; MALME-3M melanoma; MDA-MB-231 breast; KM12 colon; OVCAR-3 ovarian; SF-539 CNS; NCI-H23 lung; SNB-75 CNS; DU-145 prostate.
What all share (test): NCI tumour cell line growth inhibition, 48 h

Each structure is given as a SMILES string. “And” between values parts separate entries of the source, which are not always exact repeats. Identical values can stand only once.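 Interpolation was linear, between the two tested concentrations surrounding the appropriate level; five concentrations were tested over 48 hours in 96-well plates. GI50: concentration for 50% inhibition of growth. TGI is the concentration that stops growth completely.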

GI50 and TGI data for eight molecules are collected here from PubChem BioAssay (NCI).

For the molecule `CN[C@@H]1C[C@H]2O[C@@](C)([C@@H]1OC)n1c3ccccc3c3c4c(c5c6ccccc6n2c5c31)C(=O)N[C@H]4O`, the GI50 with SK-MEL-2 melanoma is 0.0358 µM; in the experiment with EKVX NSCLC it was 0.059 µM; in the experiment with MALME-3M melanoma, 0.0217 µM; in the experiment on MDA-MB-231 breast, 0.0227 µM; with KM12 colon it was 0.0395 µM; in the experiment with OVCAR-3 ovarian, 0.101 µM. Also, the GI50 is 0.0266 µM in the experiment with SF-539 CNS, 0.0285 µM in the experiment on NCI-H23 lung, 0.00564 µM in the experiment with SNB-75 CNS and 0.0448 µM in the experiment on DU-145 prostate. Moreover, the TGI in the experiment with SK-MEL-2 melanoma was 0.853 µM; with EKVX NSCLC, more than 10 µM; in the experiment on MALME-3M melanoma it was 0.486 µM; in the experiment with MDA-MB-231 breast it was 0.509 µM; in the experiment with KM12 colon it was 1.07 µM; in the experiment on OVCAR-3 ovarian, 1.99 µM. The TGI with SF-539 CNS is 0.115 µM; in the experiment on NCI-H23 lung it was 0.847 µM; with SNB-75 CNS, 0.0412 µM; with DU-145 prostate, more than 5.9 µM.

As for `Oc1ccc2ccccc2c1C1NN=C(c2ccccc2)S1` (centres undefined), the GI50 with SK-MEL-2 melanoma is 0.41 µM; with EKVX NSCLC, 0.633 µM; in the experiment on MALME-3M melanoma, 1.56 µM; in the experiment with MDA-MB-231 breast, 0.621 µM; with KM12 colon, 0.409 µM; in the experiment with OVCAR-3 ovarian, 0.443 µM. The GI50 was 0.361 µM with SF-539 CNS, 1.26 µM in the experiment on NCI-H23 lung, 1.02 µM in the experiment with SNB-75 CNS and 0.479 µM in the experiment with DU-145 prostate. For the same molecule, the TGI is 14.9 µM in the experiment with SK-MEL-2 melanoma; more than 94.7 µM in the experiment with EKVX NSCLC; 21 µM with MALME-3M melanoma; 35.7 µM with MDA-MB-231 breast; 32.9 µM in the experiment with KM12 colon; 11.8 µM in the experiment on OVCAR-3 ovarian. Further, the TGI worked out at 16 µM in the experiment with SF-539 CNS, 48.7 µM in the experiment on NCI-H23 lung, 32.2 µM in the experiment on SNB-75 CNS and 37.2 µM in the experiment with DU-145 prostate.

As for `C[C@@H](NC(=O)[C@@H](CC(=O)N1CCC(N2CCCCC2)CC1)N1C(=O)[C@@H](N2C(=O)OC[C@@H]2c2ccccc2)[C@H]1/C=C/c1cccc(Cl)c1)c1ccccc1`, the GI50 is 2.25 µM with SK-MEL-2 melanoma; 3.79 µM with EKVX NSCLC; 1.68 µM with MALME-3M melanoma; 1.9 µM in the experiment on MDA-MB-231 breast; 2.72 µM with KM12 colon; 1.99 µM in the experiment with OVCAR-3 ovarian. Besides, the GI50 in the experiment on SF-539 CNS is 1.76 µM; in the experiment on NCI-H23 lung it was 3.85 µM; in the experiment with SNB-75 CNS it was 1.71 µM; with DU-145 prostate, 4.03 µM. For the same molecule, the TGI turned out to be 5.36 µM with SK-MEL-2 melanoma; 18 µM with EKVX NSCLC; 3.3 µM with MALME-3M melanoma; 3.87 µM with MDA-MB-231 breast; 9.63 µM with KM12 colon; 4.49 µM in the experiment with OVCAR-3 ovarian. In addition, the TGI was 3.38 µM in the experiment on SF-539 CNS, 15.5 µM with NCI-H23 lung, 4.09 µM in the experiment on SNB-75 CNS and 14.3 µM in the experiment with DU-145 prostate.

In the case of `CCOC(=O)NC1=C(N2CC2)C(=O)C(NC(=O)OCC)=C(N2CC2)C1=O`, the GI50 is 5.09 µM and 7.71 µM with SK-MEL-2 melanoma; 24.2 µM in the experiment on EKVX NSCLC; 5.79 µM with MALME-3M melanoma; 16.7 µM in the experiment on KM12 colon; 5.91 µM and 5.8 µM in the experiment with OVCAR-3 ovarian; 1.57 µM in the experiment on SF-539 CNS. Also, the GI50 with NCI-H23 lung is 2.87 µM and 1.61 µM; in the experiment on SNB-75 CNS it was 9.24 µM. For the same molecule, the TGI in the experiment with SK-MEL-2 melanoma is 15.2 µM and 14.4 µM and 16.1 µM; in the experiment with EKVX NSCLC it was 25 µM and 16.1 µM; with MALME-3M melanoma, 18 µM and 18.3 µM and 15.6 µM; in the experiment on MDA-MB-231 breast, 15.3 µM; in the experiment with KM12 colon, 25 µM and 35.3 µM; with OVCAR-3 ovarian it was 17.4 µM and 12.9 µM and 16.1 µM. In addition, the TGI with SF-539 CNS was 9.51 µM and 9.15 µM and 27.5 µM; in the experiment on NCI-H23 lung, 15.6 µM and 14.1 µM and 7.55 µM; in the experiment with SNB-75 CNS it was 23.2 µM and 29.9 µM and 52 µM; in the experiment with DU-145 prostate, 25 µM.

Take `CC(C)[NH-].CC(C)[NH-].O.O.[Cl][Pt+2][Cl]`: the GI50 was 19 µM in the experiment on SK-MEL-2 melanoma; 66.7 µM in the experiment with EKVX NSCLC; 19.4 µM in the experiment on MALME-3M melanoma; 63.8 µM in the experiment on MDA-MB-231 breast; 96.1 µM with KM12 colon; 21.1 µM in the experiment on OVCAR-3 ovarian. In addition, the GI50 is 47.3 µM with SF-539 CNS, 30.8 µM in the experiment with NCI-H23 lung, 94.4 µM in the experiment with SNB-75 CNS and 38.7 µM in the experiment with DU-145 prostate. Moreover, the TGI in the experiment on SK-MEL-2 melanoma is 91.6 µM; with EKVX NSCLC, 203 µM; in the experiment on MALME-3M melanoma, 57.8 µM; in the experiment with MDA-MB-231 breast, 254 µM; in the experiment on KM12 colon, 251 µM; in the experiment on OVCAR-3 ovarian, 59.1 µM. For the same molecule, the TGI is 160 µM with SF-539 CNS, 183 µM in the experiment on NCI-H23 lung, 308 µM in the experiment on SNB-75 CNS and 332 µM in the experiment on DU-145 prostate.

As to `Fc1cccc(CSc2ncnc3c2ncn3C2CCCS2)c1` (centres undefined), the TGI is 40.3 µM in the experiment on SK-MEL-2 melanoma; 81.2 µM in the experiment with EKVX NSCLC; 49.3 µM in the experiment with MALME-3M melanoma; more than 100 µM in the experiment with MDA-MB-231 breast; 38.9 µM in the experiment with KM12 colon; 35.6 µM with OVCAR-3 ovarian. Moreover, the TGI amounted to 25.8 µM in the experiment on SF-539 CNS, 62.1 µM in the experiment with NCI-H23 lung, 65.6 µM with SNB-75 CNS and 50.4 µM in the experiment with DU-145 prostate.

As for `NC(=S)N/N=C/c1ccc(O)cn1`, the GI50 was 12.5 µM and 6.35 µM and 57.8 µM in the experiment on SK-MEL-2 melanoma; 82.5 µM in the experiment on EKVX NSCLC; 31 µM and 13.4 µM in the experiment on MALME-3M melanoma; 35 µM with KM12 colon; 19.9 µM and 5.16 µM in the experiment on OVCAR-3 ovarian; 4.27 µM and 2.77 µM in the experiment with SF-539 CNS. In addition, the GI50 in the experiment with NCI-H23 lung was 3.48 µM; with SNB-75 CNS it was 13.8 µM. Moreover, the TGI was 210 µM with EKVX NSCLC; 113 µM and 138 µM in the experiment with MALME-3M melanoma; more than 427 µM in the experiment on MDA-MB-231 breast; more than 1500 µM with KM12 colon; > 1500 µM and 240 µM with OVCAR-3 ovarian; 23.6 µM and 10.9 µM and 17.2 µM in the experiment on SF-539 CNS. Moreover, the TGI in the experiment with SNB-75 CNS was 60.4 µM and 227 µM; with DU-145 prostate it was 314 µM.

In the case of `Cc1ccc(C(=O)/C(=C\c2ccc([N+](=O)[O-])cc2)S(=O)Cc2ccc(F)cc2)cc1` (centres undefined), the GI50 with SK-MEL-2 melanoma is 2.1 µM; in the experiment on EKVX NSCLC, 1.78 µM; in the experiment on MALME-3M melanoma it was 1.57 µM; in the experiment on MDA-MB-231 breast it was 1.83 µM; in the experiment with KM12 colon, 2.12 µM; in the experiment with OVCAR-3 ovarian, 1.57 µM. Besides, the GI50 was 1.72 µM with SF-539 CNS, 1.69 µM in the experiment with NCI-H23 lung, 1.47 µM with SNB-75 CNS and 1.49 µM with DU-145 prostate. Also, the TGI in the experiment on SK-MEL-2 melanoma worked out at 5.2 µM; with EKVX NSCLC, 3.8 µM; with MALME-3M melanoma it was 3.33 µM; in the experiment with MDA-MB-231 breast, 3.68 µM; in the experiment on KM12 colon it was 4.78 µM; with OVCAR-3 ovarian, 2.96 µM. In addition, the TGI with SF-539 CNS is 3.29 µM; in the experiment on NCI-H23 lung, 3.36 µM; in the experiment with SNB-75 CNS it was 3.1 µM; in the experiment with DU-145 prostate it was 2.86 µM.
